Drawing on US6800629B2, “Pyrazine derivatives or salts thereof, pharmaceutical composition containing the same, and production intermediates thereof” (priority 2000, dated 2004), this text covers inhibition, anti-rotavirus activity and anti-RS virus activity for 12 compounds.

Each structure is given as a SMILES string.

Type in all cases: cell-based
In experiment [1] the test system is influenza virus (A/PR/8/34 strain). Briefly: Anti-influenza virus activity, plaque inhibition in MDCK cells. The following applies: PR/8, MDCK; for inhibition at 10 µg/mL / inhibition at 100 µg/mL: 72 h, read-out: Inhibitory rate.
Another experiment deals with Rotavirus (Ku strain). Description: Anti-rotavirus activity, plaque inhibition in MA-104 cells. The following applies: 30 μg/mL of test compound, plaque count.
The subject of another experiment is RS virus (A-2 strain). Briefly: Anti-RS virus (respiratory syncytial virus) activity, plaque inhibition in HEp-2 cells. The following applies: 30 μg/mL of test compound, plaque count.

In the case of `NC(=O)c1nc(F)cnc1O` [6-fluoro-3-hydroxy-2-pyrazinecarboxamide], the inhibition at 1 µg/mL in experiment [1] (read-out: plaque inhibitory rate) worked out at 100%.

`NC(=O)c1nccn([C@@H]2O[C@H](COC(=O)c3ccccc3)[C@@H](OC(=O)c3ccccc3)[C@H]2OC(=O)c2ccccc2)c1=O` [Example I-1, [(2R,3R,4R,5R)-5-[3-(aminocarbonyl)-2-oxo-1(2H)-pyrazinyl]-3,4-bis(benzoyloxy)tetrahydro-2-furanyl]methyl benzoate]: the anti-rotavirus activity result in the experiment with Rotavirus (Ku strain) was “shows an anti-rotavirus activity”.

`NC(=O)c1nccn([C@@H]2O[C@H](CO)[C@@H](O)[C@H]2O)c1=O` [Example I-2, 4-[(2R,3R,4S,5R)-3,4-dihydroxy-5-(hydroxymethyl)tetrahydro-2-furanyl]-3-oxo-3,4-dihydro-2-pyrazinecarboxamide]: in experiment [1], the inhibition at 10 µg/mL is 95%.

As to `NC(=O)c1nccn(C2C[C@H](O)[C@@H](CO)O2)c1=O` (stereo partly drawn) [Example I-4, 4-[(4S,5R)-4-hydroxy-5-(hydroxymethyl)tetrahydro-2-furanyl]-3-oxo-3,4-dihydro-2-pyrazinecarboxamide], the inhibition at 100 µg/mL in experiment [1] was found to be 80%.

As to `NC(=O)c1nc(F)cn([C@@H]2O[C@H](CO)[C@@H](O)[C@H]2O)c1=O` [Example I-6, 4-[(2R,3R,4S,5R)-3,4-dihydroxy-5-(hydroxymethyl)tetrahydro-2-furanyl]-6-fluoro-3-oxo-3,4-dihydro-2-pyrazinecarboxamide], in experiment [1], the inhibition at 10 µg/mL stood at 47%.

`NC(=O)c1nc(Cl)cn([C@@H]2O[C@H](CO)[C@@H](O)[C@H]2O)c1=O` [Example I-7, 6-chloro-4-[(2R,3R,4S,5R)-3,4-dihydroxy-5-(hydroxymethyl)tetrahydro-2-furanyl]-3-oxo-3,4-dihydro-2-pyrazinecarboxamide]: the inhibition at 100 µg/mL in experiment [1] came out at 42%.

As for `NC(=O)c1nccn(C2C=CC(CO)C2)c1=O` (stereo not drawn) [Example I-8, 4-[4-(hydroxymethyl)-2-cyclopenten-1-yl]-3-oxo-3,4-dihydro-2-pyrazinecarboxamide], in experiment [1], the inhibition at 100 µg/mL was found to be 42%.

In the case of `NC(=O)c1nccn([C@@H]2CO[C@H](CO)[C@@H](O)C2)c1=O` [Example I-9, 4-[(3S,5S,6R)-5-hydroxy-6-(hydroxymethyl)tetrahydro-2H-pyran-3-yl]-3-oxo-3,4-dihydro-2-pyrazinecarboxamide], the inhibition at 100 µg/mL in experiment [1] came to 31%.

With `NC(=O)c1nccn([C@@H]2CO[C@H](CO)[C@@H](O)[C@H]2O)c1=O` [Example I-10, 4-[(3R,4S,5S,6R)-4,5-dihydroxy-6-(hydroxymethyl)tetrahydro-2H-pyran-3-yl]-3-oxo-3,4-dihydro-2-pyrazinecarboxamide], the inhibition at 100 µg/mL in experiment [1] came out at 26%.

In the case of `NC(=O)c1nccn([C@@H]2O[C@H](COP(=O)(O)O)[C@@H](O)[C@H]2O)c1=O` [Example I-12, {(2R,3S,4R,5R)-5-[3-(aminocarbonyl)-2-oxo-1(2H)-pyrazinyl]-3,4-dihydroxytetrahydro-2-furanyl}methyl dihydrogen phosphate], in experiment [1], the inhibition at 100 µg/mL stood at 28%.

Consider `NC(=O)c1nccn([C@@H]2O[C@H](COP(=O)(OCc3ccccc3)OCc3ccccc3)[C@@H](O)[C@H]2O)c1=O` [Example I-13, {(2R,3S,4R,5R)-5-[3-(aminocarbonyl)-2-oxo-1(2H)-pyrazinyl]-3,4-dihydroxytetrahydro-2-furanyl}methyl dibenzyl phosphate], for which the inhibition at 100 µg/mL in experiment [1] stood at 39%.

As for `CC(=O)OC[C@H]1O[C@@H](n2ccnc(C(=N)N)c2=O)[C@H](OC(C)=O)[C@@H]1OC(C)=O` [Example I-14, (2R,3R,4R,5R)-4-(acetyloxy)-2-[(acetyloxy)methyl]-5-[3-[amino(imino)methyl]-2-oxo-1(2H)-pyrazinyl]tetrahydro-3-furanyl acetate], the anti-RS virus activity entry in the experiment with RS virus (A-2 strain) is “shows an anti-RS virus activity”.
